From the NIST ThermoML archive (doi:10.1007/s10765-005-5570-x)

Experiment: xn = mol fraction of the nth substance listed
Conditions: Liquid

BrCBr [dibromomethane] + CCOC(C)=O
Conditions | mass density [kg/m3]
288.15 K, 101.33 kPa, x1 = 0.0522 | 966.58
288.15 K, 101.33 kPa, x1 = 0.2014 | 1147.77
288.15 K, 101.33 kPa, x1 = 0.3006 | 1277.79
288.15 K, 101.33 kPa, x1 = 0.4028 | 1419.89
288.15 K, 101.33 kPa, x1 = 0.4852 | 1542.09
288.15 K, 101.33 kPa, x1 = 0.6012 | 1725.96
288.15 K, 101.33 kPa, x1 = 0.7001 | 1895.61
288.15 K, 101.33 kPa, x1 = 0.8077 | 2095.3
288.15 K, 101.33 kPa, x1 = 0.8997 | 2281.45
288.15 K, 101.33 kPa, x1 = 1 | 2501.88
298.15 K, 101.33 kPa, x1 = 0.0522 | 954.36
298.15 K, 101.33 kPa, x1 = 0.2014 | 1133.83
298.15 K, 101.33 kPa, x1 = 0.3006 | 1262.61
298.15 K, 101.33 kPa, x1 = 0.4028 | 1404.06
298.15 K, 101.33 kPa, x1 = 0.4852 | 1525
298.15 K, 101.33 kPa, x1 = 0.6012 | 1707.9
298.15 K, 101.33 kPa, x1 = 0.7001 | 1876.1
298.15 K, 101.33 kPa, x1 = 0.8077 | 2074.59
298.15 K, 101.33 kPa, x1 = 0.8997 | 2259.57
298.15 K, 101.33 kPa, x1 = 1 | 2478.37
298.15 K, 200 kPa, x1 = 0.2995 | 1260.2
298.15 K, 200 kPa, x1 = 0.5013 | 1549.45
298.15 K, 200 kPa, x1 = 0.6994 | 1874.05
298.15 K, 500 kPa, x1 = 0.2995 | 1260.63
298.15 K, 600 kPa, x1 = 0.5013 | 1550.03
298.15 K, 600 kPa, x1 = 0.6994 | 1874.73
298.15 K, 1100 kPa, x1 = 0.2995 | 1261.34
298.15 K, 1100 kPa, x1 = 0.5013 | 1550.84
298.15 K, 1200 kPa, x1 = 0.6994 | 1875.51
298.15 K, 1900 kPa, x1 = 0.5013 | 1551.83
298.15 K, 2100 kPa, x1 = 0.2995 | 1262.47
298.15 K, 2200 kPa, x1 = 0.6994 | 1876.85
298.15 K, 2900 kPa, x1 = 0.2995 | 1263.67
298.15 K, 2900 kPa, x1 = 0.5013 | 1553.29
298.15 K, 2900 kPa, x1 = 0.6994 | 1878.02
298.15 K, 3700 kPa, x1 = 0.2995 | 1264.58
298.15 K, 3900 kPa, x1 = 0.5013 | 1554.65
298.15 K, 4200 kPa, x1 = 0.6994 | 1879.75
298.15 K, 4700 kPa, x1 = 0.5013 | 1555.68
298.15 K, 4800 kPa, x1 = 0.2995 | 1265.79
298.15 K, 5200 kPa, x1 = 0.6994 | 1881.21
298.15 K, 5900 kPa, x1 = 0.2995 | 1267.24
298.15 K, 6000 kPa, x1 = 0.5013 | 1557.43
298.15 K, 6000 kPa, x1 = 0.6994 | 1882.25
298.15 K, 6700 kPa, x1 = 0.5013 | 1558.4
298.15 K, 6800 kPa, x1 = 0.2995 | 1268.29
298.15 K, 7000 kPa, x1 = 0.6994 | 1883.78
298.15 K, 7900 kPa, x1 = 0.5013 | 1560
298.15 K, 8000 kPa, x1 = 0.2995 | 1269.58
298.15 K, 8100 kPa, x1 = 0.6994 | 1885.33
298.15 K, 8600 kPa, x1 = 0.5013 | 1561.02
298.15 K, 8900 kPa, x1 = 0.2995 | 1270.84
298.15 K, 9100 kPa, x1 = 0.6994 | 1887
298.15 K, 9800 kPa, x1 = 0.2995 | 1271.89
298.15 K, 10000 kPa, x1 = 0.5013 | 1562.92
298.15 K, 10000 kPa, x1 = 0.6994 | 1888.23
298.15 K, 10400 kPa, x1 = 0.6994 | 1888.73
298.15 K, 12000 kPa, x1 = 0.5013 | 1565.67
298.15 K, 12100 kPa, x1 = 0.2995 | 1274.55
298.15 K, 12300 kPa, x1 = 0.6994 | 1891.62
298.15 K, 13800 kPa, x1 = 0.5013 | 1568.24
298.15 K, 14000 kPa, x1 = 0.2995 | 1276.89
298.15 K, 14000 kPa, x1 = 0.6994 | 1894.37
298.15 K, 15800 kPa, x1 = 0.2995 | 1278.96
298.15 K, 15800 kPa, x1 = 0.5013 | 1570.87
298.15 K, 15900 kPa, x1 = 0.6994 | 1897.08
298.15 K, 17600 kPa, x1 = 0.5013 | 1573.34
298.15 K, 17800 kPa, x1 = 0.6994 | 1900.02
298.15 K, 17900 kPa, x1 = 0.2995 | 1281.5
298.15 K, 19800 kPa, x1 = 0.5013 | 1576.4
298.15 K, 19800 kPa, x1 = 0.6994 | 1903.09
298.15 K, 20100 kPa, x1 = 0.2995 | 1284.19
308.15 K, 101.33 kPa, x1 = 0.0522 | 940.97
308.15 K, 101.33 kPa, x1 = 0.2014 | 1118.5
308.15 K, 101.33 kPa, x1 = 0.3006 | 1245.98
308.15 K, 101.33 kPa, x1 = 0.4028 | 1385.7
308.15 K, 101.33 kPa, x1 = 0.4852 | 1505.67
308.15 K, 101.33 kPa, x1 = 0.6012 | 1686.98
308.15 K, 101.33 kPa, x1 = 0.7001 | 1854.24
308.15 K, 101.33 kPa, x1 = 0.8077 | 2050.67
308.15 K, 101.33 kPa, x1 = 0.8997 | 2234.29
308.15 K, 101.33 kPa, x1 = 1 | 2451.74
